Laboratory results as given in PMC10674987, “Sweet Cherry Extract as Permeation Enhancer of Tyrosine Kinase Inhibitors: A Promising Prospective for Future Oral Anticancer Therapies” (Pharmaceuticals, 2023).
Read-outs that look alike come from different tables or passages of the source.

Tests used:
[1] = Bidirectional permeability in Caco-2 cells in absence and presence of SCE; assay type: in vitro ADME, human; details: human, 10 µM compound; for Papp A→B at 2 h, 10 µM: apical to basolateral; for Papp B→A at 2 h, 10 µM: basolateral to apical; for efflux ratio at 2 h, 10 µM: read-out: Efflux ratio (ER) (Papp B-A/Papp A-B)
Protocol: (§1) Caco-2 cells were seeded at a density of 2 × 10^4 on Transwell supports (0.4 µm pore polycarbonate membrane, 6.5 mm) and incubated overnight in a controlled atmosphere of 37 °C and 5% of CO2. The following day, the medium was changed to remove floating cells and fresh pre-warmed DMEM 20% was added (300 µL in the apical compartment and 1200 µL in the basal one). Cells were cultured for approximately 18–21 days in order to ensure that the cellular monolayers differentiated and many transport proteins and brush border hydrolases were expressed. Media were changed every 2–3 days.
(§2) For permeability studies, stock solutions of compounds were prepared by solubilizing 1.0 mg of accurately weighed powder with dimethyl sulfoxide (DMSO) and conserved at −20 °C. Immediately prior to the experiments, working solutions (WS) were prepared by diluting the stock solutions with pre-warmed HBSS to the final concentration of 10 µM. The final concentration of DMSO used never exceeded 0.1% v/v. The assays were performed in both the absorptive (from apical-to-basolateral compartment (A-B)) and the secretory direction (from basolateral-to-apical compartment (B-A)), both in the absence (Free) and presence of sweet cherry extract (+SCE [1 mg/mL]) diluted in HBSS. The final volumes used for the experiment were 300 µL in the apical compartment and 1200 µL in the basolateral one. Plates were incubated at 37 °C and maintained under gentle shaking (500 rpm) to reduce the effect of the unstirred water layer. At selected time points (T0–0.25–0.5–1–2 h-TEND for the A-B studies; T0–2 h–TEND for the B-A studies), samples (200 µL) were collected from the receiving compartments (from the basolateral compartment for the A-B assay; from the apical one for the B-A study) and replaced with the same volume of HBSS. The HPLC-UV/MS method was developed to quantify the amount of drug transferred across the cellular monolayer, and permeability (Papp, 10^−6 cm/s) and efflux ratio (ER) were calculated according to the following equations:Papp = (dQ/dt) × 1/(A × C0)(5) where dQ/dt is the steady-state flux (µmol s^−1), A is the area of the filter (cm^2), and C0 is the initial concentration in the donor compartment (µM). ER = (Papp B-A)/(Papp A-B)(6)
(§3) Chromatographic analyses were carried out using an Agilent 1260 Infinity HPLC-DAD system connected to an Agilent MSD 6130 system (Agilent Technologies, Palo Alto, CA, USA). At room temperature, a Kinetex C18-100 Å column (150 mm 4.6 mm, purchased from Phenomenex, Torrance, CA, USA) with a 5 µm particle size and gradient elution with a binary solution (eluent A: H2O, eluent B: ACN, both acidified with 0.1% v/v formic acid) was for the chromatographic separation. Analyses started with 5% B (from t = 0 to t = 1 min), then increased to 95% (from t = 1 to t = 10 min), then maintained at 95% (from t = 10 to t = 15 min), and finally returned to […] in 1.0 min. The volume injected was 10 µL, and the flow rate 600 µL/min. UV detection was monitored at 254 nm, and spectra were collected in both the positive and negative modes within the scan range of m/z 100–1500.

Caco-2 monolayer = experiment: as above; assay type: in vitro ADME, human; details: for Change of Papp A-B in presence of SCE vs Free / Change of Papp B-A in presence of SCE vs Free / Change of efflux ratio in presence of SCE vs Free: +SCE 1 mg/mL vs Free
Protocol: as §1, §2, §3

[2] = human liver microsomes; previously published; cited from earlier work
[3] = previously published; cited from earlier work
[4] = previously published; cited from earlier work; remark: listed apart in the source
Caco-2 cells = experiment: Cell viability assay (MTT) on Caco-2 cells; assay type: cell-based, human; details: 2 h
Protocol: (§4) Cells were sub-cultured using a 1× trypsin/EDTA solution and then passed every 3–4 days at appropriate ratios (typically 1:3, 1:6, 1:12). […] After 2 h of treatment, solutions were aspirated from the wells, and the cells were washed with pre-warmed PBS. […] Furthermore, it was mandatory to identify the most suitable drug concentration that would avoid cytotoxic effects on Caco-2 cells (a condition that may bias the permeability study) and that would allow the optimal chromatographic response when analyzing the samples obtained. Therefore, cells were exposed to increasing concentrations of drugs (1–10–100 µM) for 2 h. […] In order to fully reproduce the conditions of the permeability studies and assess the possible induction of irreversible cytotoxic effects by SCE or drugs, cell viability was also checked after a further 24 h of incubation in free medium (2 h + 24 h). Cell viability was assessed as above described.

[5] = Cell viability assay (MTT) on Caco-2 cells; assay type: cell-based, human; details: human, Caco-2 cells, 2 h + 24 h fresh medium
Protocol: as §4

[6] = parameters: method as in earlier work; details: in humans; EMA reports; cited from earlier work
[7] = known from literature; cited from earlier work
[8] = known from the literature; cited from earlier work

SMILES	Papp A→B at 2 h, 10 µM ([1]; Caco-2, +SCE [1 mg/mL]) [×10⁻⁶ cm/s]	Papp B→A at 2 h, 10 µM ([1]; Caco-2, +SCE [1 mg/mL]) [×10⁻⁶ cm/s]	efflux ratio at 2 h, 10 µM ([1]; Caco-2, +SCE [1 mg/mL])	Papp A→B at 2 h, 10 µM ([1]; Caco-2, Free) [×10⁻⁶ cm/s]	Papp B→A at 2 h, 10 µM ([1]; Caco-2, Free) [×10⁻⁶ cm/s]	efflux ratio at 2 h, 10 µM ([1]; Caco-2, Free)	Change of Papp A-B in presence of SCE vs Free (Caco-2 monolayer)	Change of Papp B-A in presence of SCE vs Free (Caco-2 monolayer)	Change of efflux ratio in presence of SCE vs Free (Caco-2 monolayer)	Metabolic Stability [2] [%]	PAMPA membrane retention (MR %) [3] [%]	PAMPA Papp [3]	further results
Fc1ccc(C(Cl)Cn2ncc3c(NCc4ccccc4)ncnc32)cc1 (stereo not drawn) [Cpd 1]	16.167 ± 0.014	26.8 ± 3.68	1.66 ± 0.226	4.943 ± 0.044	15.1 ± 1.57	~3	about three and four times	more interesting implementation	almost halved	84.2	9.2		melting point: 143 to 144 °C
CSc1nc(NCCc2ccccc2)c2cnn(CC(Cl)c3ccccc3)c2n1 (stereo not drawn) [Cpd 2]	0.224 ± 0.009	2.3 ± 0.279	10.2 ± 0.837		10.4 ± 0.363	97.3 ± 4.49	almost doubled	significant reduction	nine-fold reduction	96.6	42.7	3.2 10^−6 cm/s	
Oc1ccc(Cl)c(Nc2ncnc3c2cnn3CC(Cl)c2ccccc2)c1 (stereo not drawn) [Cpd 3]	16.3 ± 0.537	32.5 ± 0.784	2 ± 0.114	1.68 ± 0.061	4.74 ± 0.097	~3	~10 fold	more interesting implementation	almost halved	86.3		4.3 (-) 10^−6 cm/s	
Oc1ccc(Cl)c(Nc2nc(SCCN3CCOCC3)nc3c2cnn3/C=C/c2ccccc2)c1 [Cpd 7]	1.17 ± 0.12	0.457 ± 0.108	0.387 ± 0.052	< 0.5	0.229 ± 0.023	0.517 ± 0.014	almost doubled	only a slight increase	only a slight decrease	97.6	5.4	5.5 10^−6 cm/s	Efflux ratio (ER) (Papp B-A/Papp A-B) (Caco-2 monolayer; Free, 10 µM compound): 0.481 ± 0.049; Water Solubility [4]: 0.036 µg/mL; melting point: 189 to 191 °C
Cc1nc(Nc2ncc(C(=O)Nc3c(C)cccc3Cl)s2)cc(N2CCN(CCO)CC2)n1 [Dasatinib, dasatinib, reference compound]	2.41 ± 0.12	31.1 ± 0.342	12.9 ± 0.786	2.02 ± 0.103	36.9 ± 2.95	18.2 ± 0.529	slight increase	did not show relevant changes	reduced				Cell viability (Caco-2 cells; 1 µM, vs untreated control): no significant signs of toxicity; viability at 10 µM ([5]; 10 µM): 90 to 100%; viability at 100 µM ([5]; 100 µM): 70 to 80%; Bioavailability [6]: 15.2%
CC(C)NCC(O)COc1cccc2ccccc12 (stereo not drawn) [Propranolol, propranolol, reference compound]	93.1 ± 3.84	37.2 ± 4.73	0.399 ± 0.034	41.3 ± 4.28	33.6 ± 0.967		doubled	did not show relevant changes	almost halved				Papp [7]: higher than 10 × 10^−6 cm/s; Oral bioavailability / oral absorption (of an oral dose) [8]: around 90%; Cell viability (Caco-2 cells; 1 µM, vs untreated control): no significant signs of toxicity; Cell viability (Caco-2 cells; 100 µM): high percentages of viable cells

Now from value to compound, other results behind:

Papp A→B at 2 h, 10 µM ([1]; Caco-2, +SCE [1 mg/mL]) [×10⁻⁶ cm/s]	Papp B→A at 2 h, 10 µM ([1]; Caco-2, +SCE [1 mg/mL]) [×10⁻⁶ cm/s]	efflux ratio at 2 h, 10 µM ([1]; Caco-2, +SCE [1 mg/mL])	Papp A→B at 2 h, 10 µM ([1]; Caco-2, Free) [×10⁻⁶ cm/s]	Papp B→A at 2 h, 10 µM ([1]; Caco-2, Free) [×10⁻⁶ cm/s]	efflux ratio at 2 h, 10 µM ([1]; Caco-2, Free)	Change of Papp A-B in presence of SCE vs Free (Caco-2 monolayer)	Change of Papp B-A in presence of SCE vs Free (Caco-2 monolayer)	Change of efflux ratio in presence of SCE vs Free (Caco-2 monolayer)	SMILES	Metabolic Stability [2] [%]	PAMPA membrane retention (MR %) [3] [%]	PAMPA Papp [3]	further results
16.9 ± 0.743	53.3 ± 1.8	3.16 ± 0.245	5.11 ± 0.385	34.5 ± 0.817	6.77 ± 0.351	about three and four times	more interesting implementation	almost halved	CC(Cn1ncc2c(Nc3cccc(O)c3)nc(NCCO)nc21)c1ccccc1 (stereo not drawn) [Cpd 4]	99.4	1	lower than 1 10^−6 cm/s	
1.54 ± 0.095	5.99 ± 0.286	3.88 ± 0.054	1.25 ± 0.122	8.04 ± 0.183	6.46 ± 0.486	only a slight improvement	significant reduction	almost halved	CC(Cn1ncc2c(Nc3cc(O)ccc3Cl)nc(SCCN3CCOCC3)nc21)c1ccccc1 (stereo not drawn) [Cpd 5]	97.9	6.6	over 10 10^−6 cm/s	Caco-2 Papp A-B lower than PAMPA Papp (Caco-2 monolayer; Free): ~10 fold
14.9 ± 1.86	51.45 ± 0.118	3.48 ± 0.445	3.32 ± 0.041	19 ± 2.15	5.71 ± 0.578	about three and four times	more interesting implementation	almost halved	CC(Cn1ncc2c(Nc3cc(O)ccc3Cl)nc(NCCO)nc21)c1ccccc1 (stereo not drawn) [Cpd 6]	97.9	4.0	lower than 1 10^−6 cm/s	
